Measurements as given in patent publication US20250312469A1 (CANGET BIOTEKPHARMA, priority 2024, published 2025).

Experiments:
[1] = system: other 109 ubiquitin-related proteins/enzymes; assay: ProtoArray protein microarray probed with 3H-FL118; assay type: binding, human
Procedure: The flask was then immersed in silicone oil bath at 180° C.-190° C. for 6 hours. The tritium gas was removed. The reaction mixture was dissolved in 1 mL of DMSO and back-exchanged 10× with 50% ethanol. Injected directly to CapCeLL PAK C-18 column (4.6×250 mm), mobile phase 30% CH3CN, 0.1% TFA, flow 1 mL/min, U.V. =200 nm, r.t. =40 min. After purification, total activity was 5 mCi (solid) with a specificity of 5.6 Ci/mmol at a radiochemical purity of >97% for ^3H-FL118. […] The flask was then immersed in silicone oil bath at 190° C. for 24 h. The tritium gas was removed. The reaction mixture was dissolved in 1 mL of DMSO and back-exchanged 10× with 50% ethanol and injected directly to CapCeLL Pak C-18 column (4.6×250 mm), mobile phase 30% CH3CN, 0.1% TFA, […], U.V. =200 nm, r.t. =40 min. After purification total activity was 5 mCi (solid) with a specificity of 16.5 Ci/mmol at a radiochemical purity of ≥81% for ^3H-FL118.
Use of ^3H-FL118 as a radioactive probe to search FL118-binding proteins through screening of human protein microarray (ProtoArray R with 9,400 human proteins, Invitrogen): The study process includes the following steps.
1. Blocking the ProtoArray: (i) Immediately place the mailer containing the Human Protein Microarray v5.0 at 4° C. upon removal from storage at −20° C. and equilibrate the mailer at 4° C. for at least 15 minutes prior to use. […]

[2] = system: Panc-1, BxPC-3 and MiaPaca-2 cells; assay: Cell monolayer wound healing test; assay type: cell-based, human
Procedure: Representative cell migration wound healing images were taken at zero hour and wound healing for 48-72 hours.

ABCG2/BCRP = biological target: T1, ABCG2/BCRP (Homo sapiens, UniProt Q9UNQ0); assay: ABCG2/BCRP inhibition (BCRP-MDCK, cladribine)
T1 sequence (Q9UNQ0 1-655): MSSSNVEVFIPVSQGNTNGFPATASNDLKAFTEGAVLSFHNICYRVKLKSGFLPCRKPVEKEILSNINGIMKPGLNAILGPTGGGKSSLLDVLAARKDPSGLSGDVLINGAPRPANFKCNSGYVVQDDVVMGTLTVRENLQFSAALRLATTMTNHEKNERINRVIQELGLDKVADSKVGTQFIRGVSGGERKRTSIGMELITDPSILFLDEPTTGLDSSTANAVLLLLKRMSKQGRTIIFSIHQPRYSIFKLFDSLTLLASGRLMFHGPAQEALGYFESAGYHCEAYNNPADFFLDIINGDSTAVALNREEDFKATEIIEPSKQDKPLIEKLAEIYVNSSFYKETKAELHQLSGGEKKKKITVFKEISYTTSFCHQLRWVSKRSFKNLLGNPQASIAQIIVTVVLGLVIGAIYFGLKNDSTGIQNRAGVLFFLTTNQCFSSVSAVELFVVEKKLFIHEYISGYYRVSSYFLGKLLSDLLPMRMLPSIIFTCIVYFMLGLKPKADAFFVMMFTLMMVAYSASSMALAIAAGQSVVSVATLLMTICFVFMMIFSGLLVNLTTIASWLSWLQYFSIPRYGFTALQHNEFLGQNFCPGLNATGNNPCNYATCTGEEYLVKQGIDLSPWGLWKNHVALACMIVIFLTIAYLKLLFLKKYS
Procedure: After 30 minutes the buffer was removed, replaced with fresh dosing solution/assay buffer, and time was recorded as 0. […] Each determination was performed in duplicate. […] Analytical conditions are outlined in Appendix 1.

CCC1(O)C(=O)OCc2c1cc1n(c2=O)Cc2cc3cc4c(cc3nc2-1)OCO4 (stereo not shown) [FL118]
binding to other ubiquitin-related proteins [1]: did not bind
cell migration wound healing [2]: exhibited cell migration wound healing defect
inhibition of BCRP transport of cladribine (ABCG2/BCRP; 1.0 μM FL118): does not inhibit cladribine acting as a BCRP substrate
BCRP Inhibition Potential Classification (ABCG2/BCRP; BCRP-MDCK, cladribine as substrate, 1.0 μM FL118 or 0.5 μM Ko143): Negative (without inhibitor, and reduced by <50 with inhibitor: Negative)
